Measured values published in PubChem BioAssay AID2060493 (Molecular Pharmacology Branch, DTP, NCI, 2025).
pIC50: −log10 of the molar value.

Tested on: 616215-338-R-J1-PDC tumor spheroids, viability
Test: Anticancer human tumor 616215-338-R-J1-PDC patient-derived colon adenocarcinoma cell line growth inhibition [GQUAD]
Details: spheroids with HUVEC and MSC; for pIC50: curve of first compound; for viability, T/C: stronger effect = lower value
Summary of the method: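 Viability of tumor cells grown as complex spheroids with endothelial and stromal cells, exposed to drug combinations. Top concentration at or near clinical Cmax (else 10 microM), diluted in half-log increments.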

[1] = second compound 0.0316 µM, first compound 0.0316 µM
[2] = second compound 0.0316 µM, first compound 0.1 µM
[3] = second compound 0.0316 µM, first compound 0.316 µM
[4] = second compound 0.0316 µM, first compound 1 µM
[5] = second compound 0.0316 µM, first compound 3.16 µM
[6] = second compound 0.0316 µM, first compound 10 µM
[7] = second compound 0.1 µM, first compound 0.0316 µM
[8] = second compound 0.1 µM, first compound 0.1 µM
[9] = second compound 0.1 µM, first compound 0.316 µM
[10] = second compound 0.1 µM, first compound 1 µM
[11] = second compound 0.1 µM, first compound 3.16 µM
[12] = second compound 0.1 µM, first compound 10 µM
[13] = second compound 0.316 µM, first compound 0.0316 µM
[14] = second compound 0.316 µM, first compound 0.1 µM
[15] = second compound 0.316 µM, first compound 0.316 µM
[16] = second compound 0.316 µM, first compound 1 µM
[17] = second compound 0.316 µM, first compound 3.16 µM
[18] = second compound 0.316 µM, first compound 10 µM
[19] = second compound 1 µM, first compound 0.0316 µM
[20] = second compound 1 µM, first compound 0.1 µM
[21] = second compound 1 µM, first compound 0.316 µM
[22] = second compound 1 µM, first compound 1 µM
[23] = second compound 1 µM, first compound 3.16 µM
[24] = second compound 1 µM, first compound 10 µM
[25] = second compound 3.16 µM, first compound 0.0316 µM
[26] = second compound 3.16 µM, first compound 0.1 µM
[27] = second compound 3.16 µM, first compound 0.316 µM
[28] = second compound 3.16 µM, first compound 1 µM
[29] = second compound 3.16 µM, first compound 3.16 µM
[30] = second compound 3.16 µM, first compound 10 µM
[31] = second compound 10 µM, first compound 0.0316 µM
[32] = second compound 10 µM, first compound 0.1 µM
[33] = second compound 10 µM, first compound 0.316 µM
[34] = second compound 10 µM, first compound 1 µM
[35] = second compound 10 µM, first compound 3.16 µM
[36] = second compound 10 µM, first compound 10 µM
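Note: spheroids exposed to agents for 7 days before readout.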
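Throughout, for viability, T/C: percent viability relative to DMSO vehicle control wells taken as 100%.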

Structure (SMILES): COc1cc(C2c3cc4c(cc3C(OC3OC5COC(C)OC5C(O)C3O)C3COC(=O)C23)OCO4)cc(OC)c1O (centres undefined) + Cc1[nH]c2ccc(F)cc2c1-c1nc2c3cccnc3c3ncccc3c2[nH]1
- pIC50 (second compound 0.0316 µM): 6.17
- pIC50 (second compound 0.1 µM): 5.98
- pIC50 (second compound 0.316 µM): 6.05
- pIC50 (second compound 1 µM): 6.23
- pIC50 (second compound 3.16 µM): 6.27
- pIC50 (second compound 10 µM): 6.14
- viability, T/C [1]: 113%
- viability, T/C [2]: 97.5%
- viability, T/C [3]: 64.9%
- viability, T/C [4]: 41.6%
- viability, T/C [5]: 32.4%
- viability, T/C [6]: 25.4%
- viability, T/C [7]: 105%
- viability, T/C [8]: 101%
- viability, T/C [9]: 67.1%
- viability, T/C [10]: 54.4%
- viability, T/C [11]: 36.2%
- viability, T/C [12]: 28.4%
- viability, T/C [13]: 84.6%
- viability, T/C [14]: 104%
- viability, T/C [15]: 75.7%
- viability, T/C [16]: 47%
- viability, T/C [17]: 31.9%
- viability, T/C [18]: 22.5%
- viability, T/C [19]: 95.9%
- viability, T/C [20]: 97.9%
- viability, T/C [21]: 65.5%
- viability, T/C [22]: 37.5%
- viability, T/C [23]: 41.9%
- viability, T/C [24]: 25.4%
- viability, T/C [25]: 86.2%
- viability, T/C [26]: 96.2%
- viability, T/C [27]: 63.2%
- viability, T/C [28]: 36.5%
- viability, T/C [29]: 40.4%
- viability, T/C [30]: 27.7%
- viability, T/C [31]: 93.8%
- viability, T/C [32]: 87.3%
- viability, T/C [33]: 67.9%
- viability, T/C [34]: 40.8%
- viability, T/C [35]: 34.3%
- viability, T/C [36]: 23%

Structure (SMILES): CC(=O)O[C@H]1C(=O)[C@@]2(C)[C@H]([C@H](OC(=O)c3ccccc3)[C@]3(O)C[C@H](OC(=O)[C@H](O)[C@@H](NC(=O)c4ccccc4)c4ccccc4)C(C)=C1C3(C)C)[C@]1(OC(C)=O)CO[C@@H]1C[C@@H]2O + Cc1[nH]c2ccc(F)cc2c1-c1nc2c3cccnc3c3ncccc3c2[nH]1
- pIC50 (second compound 0.0316 µM): > 7.50
- pIC50 (second compound 0.1 µM): > 7.50
- pIC50 (second compound 0.316 µM): > 7.50
- pIC50 (second compound 1 µM): > 7.50
- pIC50 (second compound 3.16 µM): > 7.50
- pIC50 (second compound 10 µM): > 7.50
- viability, T/C [1]: 25.5%
- viability, T/C [2]: 21.1%
- viability, T/C [3]: 16.1%
- viability, T/C [4]: 14.5%
- viability, T/C [5]: 13.6%
- viability, T/C [6]: 12.9%
- viability, T/C [7]: 31.7%
- viability, T/C [8]: 15.6%
- viability, T/C [9]: 15.4%
- viability, T/C [10]: 12.1%
- viability, T/C [11]: 11.7%
- viability, T/C [12]: 13.8%
- viability, T/C [13]: 22.9%
- viability, T/C [14]: 18.9%
- viability, T/C [15]: 15.5%
- viability, T/C [16]: 11.6%
- viability, T/C [17]: 13.1%
- viability, T/C [18]: 11.6%
- viability, T/C [19]: 19.6%
- viability, T/C [20]: 12.4%
- viability, T/C [21]: 12.8%
- viability, T/C [22]: 11.8%
- viability, T/C [23]: 13.2%
- viability, T/C [24]: 14.7%
- viability, T/C [25]: 14.9%
- viability, T/C [26]: 14.7%
- viability, T/C [27]: 15.1%
- viability, T/C [28]: 10.2%
- viability, T/C [29]: 10.8%
- viability, T/C [30]: 11.1%
- viability, T/C [31]: 16%
- viability, T/C [32]: 12.5%
- viability, T/C [33]: 14.9%
- viability, T/C [34]: 11.5%
- viability, T/C [35]: 10.1%
- viability, T/C [36]: 10.8%
